Values after ≈ are worked out from the molar mass of the structure shown. Read-outs that look alike come from different tables or passages of the source.

What all share (type): cell-based
Assay [1] has as its system Streptococcus pneumoniae 1016. Kind of assay: MIC, microtiter broth dilution (NCCLS M100-S14), S. pneumoniae 1016 (susceptible). Summed up: (§1)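 Microtiter broth dilution; interpretation per NCCLS M100-S14; endpoint = MIC. Stock: 40 mg/ml in DMSO.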
In general terms: In broth dilution the organism is exposed to a series of concentrations in liquid medium.

The subject of assay [2] is Streptococcus pyogenes 1079. The assay is described as follows: MIC, microtiter broth dilution (NCCLS M100-S14), S. pyogenes 1079 (ermB). Summed up:
as §1

The subject of assay [3] is Streptococcus pneumoniae 1175. The note with it: microtiter broth dilution. Summed up:
as §1

For assay [4], the system named is Streptococcus pneumoniae 1095. The note with it: microtiter broth dilution. Summed up:
as §1

For assay [5], the system named is Haemophilus influenzae 1218. The assay is described as follows: MIC, microtiter broth dilution (NCCLS M100-S14), H. influenzae 1218 (susceptible). The procedure, abridged: as §1
Setting [6] is: S. pneumoniae 1016 (susceptible).
The mark [7] stands for this setting: H. influenzae 1218 (susceptible).

Consider `CCC1OC(=O)C(C)C(=O)C(C)C(OC2OC(C)CC(N(C)C)C2O)C(C)(OC)CC(C)C(=O)C(C)C2N(C3CN(Cc4c(OC)cnc5ccccc45)C3)C(=O)OC12C` (stereo not shown) [Example 1.71, 3-descladinosyl-11,12-dideoxy-6-O-methyl-3-oxo-12,11-(oxycarbonyl-(1-(3-methoxyquinoline-4-methyl)-azetidin-3-yl)-imino)-erythromycin A], for which the “MIC S. pneumo. 1016” value in assay [1] (Streptococcus pneumoniae 1016) is below 0.063 µg/mL. In assay [2] (Streptococcus pyogenes 1079), the “MIC S. pyogenes 1079” value is below 0.063 µg/mL. The “MIC S. pneumo. 1175” value in assay [3] (Streptococcus pneumoniae 1175) is below 0.063 µg/mL. Besides, in assay [4] (Streptococcus pneumoniae 1095), the “MIC S. pneumo. 1095” value was below 0.063 µg/mL. For the same molecule, the “MIC H. influenzae 1218” value in assay [5] (Haemophilus influenzae 1218) stood at 1 µg/mL (≈ 1.19 µM).

For the molecule `CCC1OC(=O)C(C)C(=O)C(C)C(OC2OC(C)CC(N(C)C)C2O)C(C)(OC)CC(C)C(=O)C(C)C2N(C3CN(S(=O)(=O)c4ccc(-n5cccn5)c(C#N)c4)C3)C(=O)OC12C` (stereo not shown) [Example 3.50], the “MIC S. pneumo. 1016” value in assay [1] (Streptococcus pneumoniae 1016) is below 0.06 µg/mL. For the same molecule, in assay [2] (Streptococcus pyogenes 1079), the “MIC S. pyogenes 1079” value stood at 0.25 µg/mL (≈ 0.278 µM). In assay [3] (Streptococcus pneumoniae 1175), the “MIC S. pneumo. 1175” value was below 0.06 µg/mL. Moreover, the “MIC S. pneumo. 1095” value in assay [4] (Streptococcus pneumoniae 1095) is below 0.06 µg/mL. The “MIC H. influenzae 1218” value in assay [5] (Haemophilus influenzae 1218) came out at 1 µg/mL (≈ 1.11 µM).

Turning to `CCC1OC(=O)C(C)C(=O)C(C)C(OC2OC(C)CC(N(C)C)C2O)C(C)(OC)CC(C)C(=O)C(C)C2N(CC3CCN(Cc4ccnc5ccccc45)CC3)C(=O)OC12C` (stereo not shown) [15.02], the “MIC S. pneumo. 1016” value in assay [1] (setting [6]) was below 0.06 µg/mL. Further, the “MIC S. pyogenes 1079” value in assay [2] (S. pyogenes 1079 (ermB)) was above 64.00 µg/mL. Besides, the “MIC S. pneumo. 1175” value in assay [3] (S. pneumoniae 1175 (mefA)) was found to be 0.5 µg/mL (≈ 0.587 µM). In assay [4] (S. pneumoniae 1095 (ermB)), the “MIC S. pneumo. 1095” value is above 64.00 µg/mL. For the same molecule, the “MIC H. influenzae 1218” value in assay [5] (setting [7]) worked out at 32 µg/mL (≈ 37.6 µM).

In the case of `CCC1OC(=O)C(C)C(=O)C(C)C(OC2OC(C)CC(N(C)C)C2O)C(C)(OC)CC(C)C(=O)C(C)C2N(CC3CN(Cc4cn5cccnc5n4)C3)C(=O)OC12C` (stereo not shown) [4.27], the “MIC S. pneumo. 1016” value in assay [1] (Streptococcus pneumoniae 1016) was below 0.06 µg/mL. Moreover, in assay [2] (Streptococcus pyogenes 1079), the “MIC S. pyogenes 1079” value is above 64.00 µg/mL. Besides, in assay [3] (Streptococcus pneumoniae 1175), the “MIC S. pneumo. 1175” value was determined as 4 µg/mL (≈ 4.92 µM). In assay [4] (Streptococcus pneumoniae 1095), the “MIC S. pneumo. 1095” value was above 64.00 µg/mL. The “MIC H. influenzae 1218” value in assay [5] (Haemophilus influenzae 1218) was 1 µg/mL (≈ 1.23 µM).

For the molecule `CCC1OC(=O)C(C)C(=O)C(C)C(OC2OC(C)CC(N(C)C)C2O)C(C)(OC)CC(C)C(=O)C(C)C2N(CC3CCN(Cc4cccc(OC)n4)CC3)C(=O)OC12C` (stereo not shown) [15.05], in assay [1] (setting [6]), the “MIC S. pneumo. 1016” value was below 0.06 µg/mL. Further, the “MIC S. pyogenes 1079” value in assay [2] (S. pyogenes 1079 (ermB)) was above 64.00 µg/mL. The “MIC S. pneumo. 1175” value in assay [3] (S. pneumoniae 1175 (mefA)) was determined as 0.5 µg/mL (≈ 0.602 µM). Also, in assay [4] (S. pneumoniae 1095 (ermB)), the “MIC S. pneumo. 1095” value was above 64.00 µg/mL. Further, the “MIC H. influenzae 1218” value in assay [5] (setting [7]) is 8 µg/mL (≈ 9.63 µM).

Take `CC[C@H]1OC(=O)[C@H](C)C(=O)[C@H](C)[C@@H](O[C@@H]2O[C@H](C)C[C@H](N(C)C)[C@H]2O)[C@](C)(OC)C[C@@H](C)C(=O)[C@H](C)[C@H]2N(CC3(O)CN(Cc4ccc(-c5ncccn5)cc4)C3)C(=O)O[C@]12C` [7.10]: in assay [1] (setting [6]), the “MIC S. pneumo. 1016” value was below 0.06 µg/mL. In addition, the “MIC S. pyogenes 1079” value in assay [2] (S. pyogenes 1079 (ermB)) is above 64.00 µg/mL. Besides, the “MIC S. pneumo. 1175” value in assay [3] (S. pneumoniae 1175 (mefA)) turned out to be 1 µg/mL (≈ 1.15 µM). For the same molecule, the “MIC S. pneumo. 1095” value in assay [4] (S. pneumoniae 1095 (ermB)) is 64 µg/mL (≈ 73.9 µM). Besides, the “MIC H. influenzae 1218” value in assay [5] (setting [7]) was 2 µg/mL (≈ 2.31 µM).

On to `CC[C@H]1OC(=O)[C@H](C)C(=O)[C@H](C)[C@@H](O[C@@H]2O[C@H](C)C[C@H](N(C)C)[C@H]2O)[C@](C)(OC)C[C@@H](C)C(=O)[C@H](C)[C@H]2N(CC3(O)CN(C(=O)c4cc5ccccn5n4)C3)C(=O)O[C@]12C.O=CO` [7.30], for which the “MIC S. pneumo. 1016” value in assay [1] (setting [6]) is below 0.06 µg/mL. Besides, the “MIC S. pyogenes 1079” value in assay [2] (S. pyogenes 1079 (ermB)) is above 64.00 µg/mL. For the same molecule, in assay [3] (S. pneumoniae 1175 (mefA)), the “MIC S. pneumo. 1175” value was 0.25 µg/mL. Moreover, in assay [4] (S. pneumoniae 1095 (ermB)), the “MIC S. pneumo. 1095” value was determined as 0.25 µg/mL. The “MIC H. influenzae 1218” value in assay [5] (setting [7]) is 8 µg/mL.

Turning to `CCC1OC(=O)C(C)C(=O)C(C)C(OC2OC(C)CC(N(C)C)C2O)C(C)(OC)CC(C)C(=O)C(C)C2N(CC3CCN(C(=O)c4cc5ccccn5n4)C3)C(=O)OC12C` (stereo not shown) [13.16], the “MIC S. pneumo. 1016” value in assay [1] (setting [6]) is below 0.06 µg/mL. In addition, in assay [2] (S. pyogenes 1079 (ermB)), the “MIC S. pyogenes 1079” value was above 64.00 µg/mL. Further, the “MIC S. pneumo. 1175” value in assay [3] (S. pneumoniae 1175 (mefA)) is 1 µg/mL (≈ 1.19 µM). For the same molecule, in assay [4] (S. pneumoniae 1095 (ermB)), the “MIC S. pneumo. 1095” value is above 64.00 µg/mL. Moreover, in assay [5] (setting [7]), the “MIC H. influenzae 1218” value worked out at 16 µg/mL (≈ 19 µM).
